# Measurements published in patent publication US20190284129A1, “LIPID COMPOUNDS AND COMPOSITIONS AND THEIR OPTHALMIC USE” (BIOZEP AS, priority 2015, published 2019).
# Experiments:
# Assay type in all cases: cell-based
# [1] = tested on: neuroblastoma cells; experiment: mitochondrial DNA damage in neuroblastoma cells (RT-qPCR, TaqI cleavage); details: 10 μM compound, 24 hours, high glucose (20 mM); FIG. 3
# Description: In this study, neuroblastoma cells were cultivated at near confluency (50-75%) in DMEM/F12/10% serum high glucose (20 mM) supplied with 10 μM BIZ-101 or BIZ-105 for 24 hours prior to analyses. These conditions readily induce mtDNA damage that is representative of that accumulating during aging as the result of age-associated oxidative stress.
# For DNA damage analyses, cells were washed, and DNA isolated using Qiagen Blood&Tissue DNA isolation kit. DNA damage level was analyzed by a RT-qPCR method based on the ability of DNA lesions to inhibit restriction enzyme cleavage, as described previously (http://www.ncbi.nlm.nih.gov/pubmed/25631007) using primers 5′-[…]-3′ and 5′-[…]-3′ (sense and anti sense, respectively). Briefly, genomic DNA (6 ng) was treated with 1 U TaqI for 15 min at 65° C. DNA damage frequency was calculated as 2exp−(ctTaql−ctnt), where ctTaql and ctnt represent CT values of TaqI-treated and non-treated genomic DNA, respectively.
# [2] = tested on: NF-κB pathway; experiment: NF-κB luciferase reporter assay in NF-κB Reporter-HEK293 cells, TNFa stimulated; details: FIG. 5
# Excerpt: The NF-κB reporter (luc)-HEK293 cell line is designed for monitoring the nuclear factor Kappa B (NF-κB) signal transduction pathways. It contains a firefly luciferase gene driven by four copies of NF-κB response element located upstream of the minimal TATA promoter. After activation by pro-inflammatory cytokines or stimulants of lymphokine receptors, endogenous NF-κB transcription factors bind to the DNA response elements, inducing transcription of the luciferase reporter gene.
# NF-κB Reporter-HEK293 cells were cultured in MEM medium with 10% FBS, 1% non-essential amino acids, 1 mM Na-pyruvate, 1% Penn-strep, and 100 µg/ml of Hygromycin B.
# To perform the NF-κB luciferase reporter assay, NF-κB Reporter-HEK293 cells were seeded at 40,000 cells per well into white clear-bottom 96-well microplate in 45 μl of growth medium without Hygromycin B. Cells were incubated at 37° C. and 5% CO2 overnight to allow them to recover and reattach. The following day a series of dilutions of compounds were made in assay medium (MEM medium with 0.5% FBS, 1% non-essential amino acids, 1 mM Na-pyruvate, 1% Penn-strep). The medium was removed from the wells and 45 μl of diluted compound was added to the cells. Assay medium with DMSO was added to the untreated control wells and cell-free control wells. The final concentration of DMSO was 0.25%. The cells were incubated overnight at 37° C. in CO2 incubator. […]
# After treatment, cells were then lysed and a luciferase assay was performed using the ONE-Step luciferase assay system. […] Luminescence was measured using a luminometer (BioTek Synergy™ 2 microplate reader).
# Reporter assays were performed in triplicate at each concentration. The luminescence intensity data were analyzed using the computer software, Graphpad Prism. In the absence of the compound, the luminescence intensity (Lt) in each data set was defined as 100%. In the absence of cells, the luminescence intensity (Lb) in each data set was defined as 0%. The percent luminescence in the presence of each compound was calculated according to the following equation: % Luminescence=(L−Lb)/(Lt−Lb), where L=the luminescence intensity in the presence of the compound, Lb=the luminescence intensity in the absence of cells, and Lt=the luminescence intensity in the absence of the compound. The values of % luminescence versus a series of compound concentrations were then plotted using non-linear regression analysis of a Sigmoidal dose-response curve generated with the equation Y=B+(T B)/1+10^((Log EC50-X)×Hill Slope), where Y=percent luminescence, B=minimum percent luminescence, T=maximum percent luminescence, X=logarithm of compound and Hill Slope=slope factor or Hill coefficient. The IC50 value was determined by the concentration causing a half-maximal percent activity.
# [3] = tested on: ARPE-19 cells; experiment: oxidative stress (tert-butyl hydroperoxide) cytolysis assay in ARPE-19 retinal pigment epithelial cells
# Description: In order to evaluate the potential of BIZ-101 to protective the eye from oxidative stress damage the compound was tested in a cell based assay. Oxidative stress was induced in an ARPE-19 cell line using tert-butyl hydroperoxide at different concentrations. The cellular viability was kinetically monitored and measured by analysing the plasma membrane integrity based on the incorporation of a non-permeant and fluorescent DNA intercalating agent that selectively stain cytolytic cells with comprised plasma membranes.
# (§1) The ARPE-19 cell line was seeded and cultured in DMEM-F12 medium+10% SVF for 24 hrs in a 96 well plate. Cells were pre-treated or not with either fenofibric acid (25 μM) or compound BIZ-101 (10 μM) during this 24 hr period. After 24 hrs, the different concentrations of t-butyl hydroperoxide were added in the presence of a fluorescent DNA intercalating agent for the following monitoring. Live content time-lapse imaging was performed with a sampling rate of 1 image every 2 hr over a 96 hrs period. The number of fluorescent/cytolytic cells were counted and reported during the experiment. The treatment conditions were tested in one experiment session in a triplicate format.
# Fenofibric acid was used at 25 μM and was ordered from Sigma Aldrich. The day of the pre-treatment, a 25 mM stock solution of fenofibric acid was prepared in DMSO and diluted in the complete culture medium at 25 μM. 100 μL of this solution or 100 μL of complete culture medium+0.1% DMSO replaced the 100 μL of the complete culture medium already present in the well. The day of the treatment with t-butyl hydroperoxide, a 2 times concentrated solution of fenofibric acid was freshly diluted in the complete culture medium and 50 μL of this solution or 50 μL of complete culture medium+0.2% DMSO were added to the 100 μL of the culture medium already present in the well.
# Compound BIZ-101 was tested at a final concentration of 10 μM. A 10 mM predilution was prepared in DMSO from a 10 mM stock solution. The 10 mM solution of BIZ 101 was diluted in the complete culture medium at 10 μM. 100 μL, of this solution or 100 μL of the complete culture medium+0.1% DMSO replaced the 100 μL, of the complete culture medium already present in the well. The day of the treatment with t-butyl hydroperoxide, a 2 times concentrated solution of BIZ 101 was freshly diluted in the complete culture medium and 50 μL of this solution or 50 μL of complete culture medium+0.2% DMSO were added to the 100 μL of the culture medium already present in the well.
# Preparation of the tert-butyl hydroperoxide [tBHP] solution: 0, 0.01 mM, 0.03 mM, 0.1 mM, 0.3 mM, 1 mM, 3 mM and 10 mM. A 4 times concentrated solution of tBHP was freshly diluted in the complete culture medium for each of the concentrations to be tested. 50 μL of the 4 times concentrated solution was added to the 150 μL of the cultured medium.
# In order to evaluate the potential of BIZ-102 to protect the eye from oxidative stress damage the compound was tested in a cell based assay similar to Example 24 with the following changes. The oxidative stress in the ARPE-19 cell line was induced by using 3 different concentrations of tBHP: 10 μM, 30 μM and 100 μM and BIZ-102 was tested in 2 different concentrations: 1 μM and 10 μM.
# as §1, with “with” for “with either fenofibric acid (25 μM) or”, “BIZ-102 (1 μM and 10” for “BIZ-101 (10”
# Compound BIZ-102 was tested at a final concentration of 1 and 10 μM. […]
# [4] = molecular target: T1, human PPARα (Homo sapiens, UniProt Q07869); experiment: stable reporter HeLa cell line, GAL4-PPARα ligand activity; details: 5 μM compound, relative to 1 μM GW7647; FIG. 6
# T1 construct: expressed in transfected cells
# T1 sequence (Q07869 239-466 limits assumed): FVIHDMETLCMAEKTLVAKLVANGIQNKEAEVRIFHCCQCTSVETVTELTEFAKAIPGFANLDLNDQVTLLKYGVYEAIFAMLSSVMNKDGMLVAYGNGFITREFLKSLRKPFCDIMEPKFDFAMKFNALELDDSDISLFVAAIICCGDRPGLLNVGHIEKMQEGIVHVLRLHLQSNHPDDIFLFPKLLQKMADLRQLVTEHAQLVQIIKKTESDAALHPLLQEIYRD
# Excerpt: (§2) To screen the human PPARα, PPARδ and PPARγ ligand activity of the compounds a stable reporter cell line was used (HeLa cell line). The stable reporter cell line express respectively a chimeric protein containing the ligand binding domain (LBD) of human PPARα, human PPARδ and human PPARγ fused to the yeast transactivator GAL4 DNA binding domain (DBD). The luciferase (Luc) reporter gene is driven by a pentamer of the GAL4 recognition sequence in front of a β-globin promoter. The use of GAL4-PPARα, GAL4-PPARδ and GAL4-PPARγ chimeric receptors allows for elimination of background activity from endogenous receptors and quantification of relative activity across the three PPAR subtypes with the same reporter gene. […] Luciferase activity was measured by a luminometer and luciferase activity was expressed as relative light units (RLU).
# Day 1: Seed 96—well plate with PPAR cells. Cell appearance was checked using optical microscopy. Cells were cultivated at confluency (80-100%).
# Day 2: The test articles dissolved in DMSO were added to the cells. The controls (positive controls and the solvent control) were included in each individual plate. […]
# Day 3: To determine the PPAR subtype activity of the tested compounds, the percentage of PPAR ligand activity was calculated for each tested compound as follows: […]
# [5] = molecular target: T2, human PPARγ (Homo sapiens, UniProt P37231); experiment: stable reporter HeLa cell line, GAL4-PPARγ ligand activity; details: 5 μM compound, relative to 1 μM BRL49653; FIG. 7
# T2 construct: expressed in transfected cells
# T2 sequence (P37231 238-503 limits assumed): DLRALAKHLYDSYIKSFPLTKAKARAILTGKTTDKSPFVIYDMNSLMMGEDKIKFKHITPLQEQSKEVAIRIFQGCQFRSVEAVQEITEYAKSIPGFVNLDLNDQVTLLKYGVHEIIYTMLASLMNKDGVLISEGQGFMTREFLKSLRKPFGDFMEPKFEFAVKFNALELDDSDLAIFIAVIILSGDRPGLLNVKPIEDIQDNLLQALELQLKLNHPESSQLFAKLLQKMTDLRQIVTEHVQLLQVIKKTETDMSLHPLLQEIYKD
# Excerpt: as §2
# Day 1: Seed 96—well plate with PPAR cells. Cell appearance was checked using optical microscopy. Cells were cultivated at confluency (80-100%). […]
# Day 3: To determine the PPAR subtype activity of the tested compounds, the percentage of PPAR ligand activity was calculated for each tested compound as follows:
# Percentage of PPARγ activity for the tested compound in 5 μM concentration=(RLUXcomp×100)/RLUBRL49653 where RLUBRL49653 is the luminescence measured from PPARγ cells incubated with 1 μM […] and expressed as Relative Light Units. […]
SMILES,mtDNA damage [1],dose dependence of inhibitory effect on the NF-κB pathway [2],complete inhibition of the NF-κB pathway ([2]; at high concentration),"dose dependent cytotoxicity of tBHP ([3]; 6 hrs after addition of tBHP, 24 hr pre-treatment, fenofibric acid 25 μM, BIZ-101 10 μM)","protective effects against tBHP cytotoxicity ([3]; 24 hrs after addition of t-BHP, fenofibric acid 25 μM, BIZ-101 10 μM)",protective effect compared with fenofibric acid ([3]; BIZ-101 10 μM vs fenofibric acid 25 μM),effect on retinal pigment epithelial cells during conditions of oxidative stress ([3]; overall conclusion),PPARα activity [4],PPARγ activation [5]
"CC/C=C\C/C=C\C/C=C\C/C=C\C/C=C\CCC(CC)C(=O)O (stereo not shown) [BIZ-101, 2-ethyleicosa-(all-Z)-5,8,11,14,17-pentaenoic Acid]",reduced mtDNA damage,dose dependent,completely inhibited,slightly decreased,more efficient,much more potent,protective effect,–,–
"CC/C=C\C/C=C\C/C=C\C/C=C\C/C=C\C/C=C\CC(C)C(=O)O (stereo not shown) [BIZ-105, 2-methyldocosa-(all-Z)-4,7,10,13,16,19-hexaenoic Acid]",slightly reduced level of mtDNA damage,–,–,–,–,–,–,–,–
"CC/C=C\C/C=C\C/C=C\C/C=C\C/C=C\CCOCC(=O)O [BIZ-108, 3-oxa-(6Z,9Z,12Z,15Z,18Z)-heneicosa-(6,9,12,15,18)-pentaenoic Acid]",–,–,–,–,–,–,–,all compounds except BIZ-108 had potent activity,activated PPARγ except for the unsubstituted derivative BIZ-108
